ChEMBL document CHEMBL4834411, “Hydroazulene Diterpenes from a Dictyota Brown Alga and Their Antioxidant and Neuroprotective Effects Against Cerebral Ischemia-Reperfusion Injury” (2021)
Calls of active or inactive are those of the source. The calls are words filed in the database; no cut-off is given here.

Tests used:
PC-12 [1] = test: Cytoprotective activity against H2O2-induced oxidative damage in rat PC12 cells assessed as increase in cell viability pre-incubated for 24 hrs followed by H2O2 treatment for another 24 hrs by MTT assay; assay type: functional, cell-based; conditions: dose 0.25-2 µM, time 48.0 hrs
PC-12 [2] = test: Cytoprotective activity against H2O2-induced oxidative damage in rat PC12 cells assessed as increase in cell viability at 0.25 uM preincubated for 24 hrs followed by H2O2 treatment for another 24 hrs by MTT assay; assay type: functional, cell-based; conditions: time 48.0 hrs
PC-12 [3] = test: Cytoprotective activity against H2O2-induced oxidative damage in rat PC12 cells assessed as increase in colony formation at 0.5 to 1 uM preincubated for 24 hrs followed by H2O2 treatment by crystal violet staining based assay; assay type: functional, cell-based; conditions: dose 0.5-1 µM
PC-12 [4] = test: Antioxidant activity against H2O2-induced oxidative damage in rat PC12 cells assessed as inhibition of MDA production at 2 uM preincubated for 24 hrs followed by H2O2 stimulation for 6 hrs; assay type: functional, cell-based; conditions: time 30.0 hrs
PC-12 [5] = test: Antioxidant activity against H2O2-induced oxidative damage in rat PC12 cells assessed as inhibition of intracellular ROS production at 2 uM preincubated for 24 hrs followed by H2O2 stimulation for 2 hrs by DCFH-DA staining based fluorescence microscopy; assay type: functional, cell-based; conditions: time 26.0 hrs
[6] = target: T1, Nuclear factor erythroid 2-related factor 2 (Rattus norvegicus) (UniProt O54968); test: Activation of Nrf2 in rat PC12 cells assessed as nuclear translocation of Nrf2 at 2 uM after 6 hrs by DAPI staining based fluorescence microscopy analysis; assay type: cell-based; conditions: PC-12, filed as activator
T1 sequence (whole entry): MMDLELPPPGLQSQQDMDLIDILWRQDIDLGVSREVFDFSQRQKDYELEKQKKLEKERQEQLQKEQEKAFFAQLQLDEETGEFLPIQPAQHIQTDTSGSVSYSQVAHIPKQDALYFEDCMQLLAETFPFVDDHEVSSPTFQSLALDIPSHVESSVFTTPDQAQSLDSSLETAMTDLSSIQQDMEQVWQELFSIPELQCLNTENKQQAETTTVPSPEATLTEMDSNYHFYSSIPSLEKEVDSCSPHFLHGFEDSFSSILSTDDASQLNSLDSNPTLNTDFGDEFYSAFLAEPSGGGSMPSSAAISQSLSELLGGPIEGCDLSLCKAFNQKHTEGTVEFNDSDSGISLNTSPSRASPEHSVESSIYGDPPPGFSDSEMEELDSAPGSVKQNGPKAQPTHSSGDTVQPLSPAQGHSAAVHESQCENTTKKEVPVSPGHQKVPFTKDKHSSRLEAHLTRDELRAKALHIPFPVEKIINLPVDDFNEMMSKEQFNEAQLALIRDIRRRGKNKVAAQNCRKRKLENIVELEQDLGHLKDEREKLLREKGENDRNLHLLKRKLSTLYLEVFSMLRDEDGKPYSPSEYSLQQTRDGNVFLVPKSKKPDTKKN

[7] = target: T1, Nuclear factor erythroid 2-related factor 2 (Rattus norvegicus); test: Activation of Nrf2 in rat PC12 cells assessed as upregulation of HO-1 protein expression after 24 hrs by Western blotting analysis; assay type: cell-based; conditions: PC-12, filed as activator, dose 0.5-2 µM
[8] = target: T1, Nuclear factor erythroid 2-related factor 2 (Rattus norvegicus); test: Activation of Nrf2 in rat PC12 cells assessed as upregulation of HO-1 protein expression at 2 uM after 24 hrs by Western blotting analysis; assay type: cell-based; conditions: PC-12, filed as activator
PC-12 [9] = test: Cytoprotective activity against H2O2-induced oxidative damage in Nrf2 knockdown rat PC12 cells assessed as increase in cell viability at 2 uM preincubated for 24 hrs followed by H2O2 treatment for another 24 hrs by MTT assay; assay type: functional, cell-based; conditions: time 48.0 hrs
Rattus norvegicus [10] = test: Neuroprotective activity in Sprague-Dawley rat model of middle cerebral artery occlusion-induced cerebral ischemia-reperfusion injury assessed as decrease in brain infarction size at 80 ug/kg pretreated for 2 hrs followed by MCAO measured after 72 hrs by TTC staining based assay; assay type: functional, organism-based; conditions: dose 80.0 µg/kg
Rattus norvegicus [11] = test: Neuroprotective activity in Sprague-Dawley rat model of middle cerebral artery occlusion-induced cerebral ischemia-reperfusion injury assessed as reduction in neurological deficit score at 80 ug/kg pretreated for 2 hrs followed by MCAO measured after 72 hrs by TTC staining based assay; assay type: functional, organism-based; conditions: dose 80.0 µg/kg, time 74.0 hrs

For `CC(C)=CCC[C@@H](C)[C@@H]1CC[C@](C)(O)[C@@H]2CC=C(C)[C@H]2[C@@H]1O`, the Activity (PC-12 [1]) was “Dose-Dependent Effect”, the Activity (PC-12 [2]) was “Active” and the Activity (PC-12 [3]) was “Active”. For the same compound, the Activity (PC-12 [4]) was “Active”, the Activity (PC-12 [5]) was “Active” and the Activity [6] was “Active”. The Activity [7] was “Dose-Dependent Effect”, the Activity [8] was “Active” and the Activity (PC-12 [9]) was “inactive”. The Activity (Rattus norvegicus [10]) was “Active” and the Activity (Rattus norvegicus [11]) was “Active”.
